# The source made the active and inactive calls. No cut-off for these calls is given here.
# How the values were obtained:
# [1] = system: Mycobacterium tuberculosis; test: Antimicrobial activity against 3 weeks old culture of Mycobacterium tuberculosis H37Ra assessed as colony forming unit in aerobic condition at 10.3 ug/ml for 3 hrs; format: functional
# [2] = system: Mycobacterium tuberculosis; test: Antimicrobial activity against 3 weeks old culture of Mycobacterium tuberculosis H37Ra assessed as colony forming unit in hypoxic condition at 10.3 ug/ml for 3 hrs; format: functional
# [3] = system: Mycobacterium tuberculosis; test: Antimicrobial activity against Mycobacterium tuberculosis H37Rv; format: functional
# [4] = system: Mycobacterium tuberculosis; test: Antimicrobial activity against Mycobacterium tuberculosis infected in human monocytes; format: functional
# [5] = system: Mycobacterium tuberculosis; test: Antimicrobial activity against 3 weeks old culture of Mycobacterium tuberculosis H37Rv assessed as 1:4 serum inhibitory titers treated with blood from 100 mg/kg, po dosed Swiss mouse collected after 2 hrs; format: functional, organism-based; parameters: dose 100 mg/kg
# [6] = system: Mycobacterium tuberculosis; test: Antimicrobial activity against 1 month old culture of Mycobacterium tuberculosis H37Ra assessed as colony forming unit at 10 ug/ml for 3 days at pH 5.5; format: functional
# [7] = system: Mycobacterium tuberculosis; test: Antimicrobial activity against 3 weeks old culture of Mycobacterium tuberculosis H37Ra assessed as colony forming unit at 4.5 ug/ml for 3 days at pH 7; format: functional
# [8] = system: Mycobacterium tuberculosis; test: Antimicrobial activity against 3 weeks old culture of Mycobacterium tuberculosis H37Ra assessed as colony forming unit at 4.5 ug/ml for 3 days at pH 5.5; format: functional
# [9] = system: Mycobacterium tuberculosis; test: Antimicrobial activity against 2 months old culture of Mycobacterium tuberculosis H37Ra assessed as colony forming unit at 4.5 ug/ml for 3 days at pH 5.5; format: functional
# [10] = system: Mycobacterium tuberculosis; test: Antimicrobial activity against 2 months old culture of Mycobacterium tuberculosis H37Ra assessed as colony forming unit at 4.5 ug/ml for 3 days at pH 7; format: functional
# [11] = system: Mycobacterium tuberculosis; test: Antimicrobial activity against 2 months old culture of Mycobacterium tuberculosis H37Ra assessed as colony forming unit at 5 ug/ml for 3 days at pH 5.5; format: functional
# [12] = system: Mycobacterium tuberculosis; test: Antimicrobial activity against 3 weeks old culture of Mycobacterium tuberculosis H37Ra assessed as colony forming unit in aerobic condition at 4.5 ug/ml for 3 hrs; format: functional
# [13] = system: Mycobacterium tuberculosis; test: Antimicrobial activity against 3 weeks old culture of Mycobacterium tuberculosis H37Ra assessed as colony forming unit in hypoxic condition at 4.5 ug/ml for 3 hrs; format: functional
# [14] = system: Mycobacterium tuberculosis; test: Antimicrobial activity against 3 weeks old culture of Mycobacterium tuberculosis H37Rv assessed as 1:2 serum inhibitory titers treated with blood from 100 mg/kg, po dosed Swiss mouse collected after 2 hrs; format: functional, organism-based; parameters: dose 100 mg/kg
# [15] = system: Mycobacterium tuberculosis; test: Antimicrobial activity against 3 weeks old culture of Mycobacterium tuberculosis H37Rv assessed as 1:16 serum inhibitory titers treated with blood from 25 mg/kg, po dosed Swiss mouse collected after 1 hrs; format: functional, organism-based; parameters: dose 25 mg/kg
# [16] = system: Mycobacterium tuberculosis; test: Antimicrobial activity against Mycobacterium tuberculosis H37Rv assessed as drug concentration required to kill 99% of the inoculum; format: functional
# [17] = system: Mycobacterium tuberculosis; test: Antimicrobial activity against 2 weeks old culture of Mycobacterium tuberculosis H37Ra assessed as colony forming unit at 100 ug/ml for 3 days at pH 5.5; format: functional
# [18] = system: Mycobacterium tuberculosis; test: Antimicrobial activity against 2 months old culture of Mycobacterium tuberculosis H37Ra assessed as colony forming unit at 100 ug/ml for 3 days at pH 5.5; format: functional
# [19] = system: Mycolicibacterium smegmatis; test: Antimicrobial activity against Mycobacterium smegmatis mc26; format: functional
# Escherichia coli = test: Antimicrobial activity against Escherichia coli DH5alpha; format: functional
# [20] = system: Mycobacterium tuberculosis; test: Antimicrobial activity against 3 weeks old culture of Mycobacterium tuberculosis H37Ra assessed as colony forming unit at 3.3 ug/ml for 3 days at pH 7; format: functional
# [21] = system: Mycobacterium tuberculosis; test: Antimicrobial activity against 3 weeks old culture of Mycobacterium tuberculosis H37Ra assessed as colony forming unit at 3.3 ug/ml for 3 days at pH 5.5; format: functional
# [22] = system: Mycobacterium tuberculosis; test: Antimicrobial activity against 2 months old culture of Mycobacterium tuberculosis H37Ra assessed as colony forming unit at 3.3 ug/ml for 3 days at pH 7; format: functional
# [23] = system: Mycobacterium tuberculosis; test: Antimicrobial activity against 2 months old culture of Mycobacterium tuberculosis H37Ra assessed as colony forming unit at 3.3 ug/ml for 3 days at pH 5.5; format: functional
# [24] = system: Mycobacterium tuberculosis; test: Antimicrobial activity against 3 weeks old culture of Mycobacterium tuberculosis H37Ra assessed as colony forming unit in aerobic condition at 3.3 ug/ml for 3 hrs; format: functional
# [25] = system: Mycobacterium tuberculosis; test: Antimicrobial activity against 3 weeks old culture of Mycobacterium tuberculosis H37Ra assessed as colony forming unit in hypoxic condition at 3.3 ug/ml for 3 hrs; format: functional
# [26] = system: Mycobacterium tuberculosis; test: Antimicrobial activity against 2 months old culture of Mycobacterium tuberculosis H37Ra assessed as colony forming unit at 10 ug/ml for 3 days at pH 5.5; format: functional
# [27] = system: Mycobacterium tuberculosis; test: Antimicrobial activity against 3 weeks old culture of Mycobacterium tuberculosis H37Ra assessed as colony forming unit in aerobic condition at 2 ug/ml for 3 hrs; format: functional
# [28] = system: Mycobacterium tuberculosis; test: Antimicrobial activity against 3 weeks old culture of Mycobacterium tuberculosis H37Ra assessed as colony forming unit in hypoxic condition at 2 ug/ml for 3 hrs; format: functional
smiles,measurement,setting,value
C(=NC1CCCCC1)=NC1CCCCC1 [DICYCLOHEXYLCARBODIIMIDE],log10CFU/ml,[1],7.43
same,log10CFU/ml,[2],7.37
CCN(CC)C(=S)SSC(=S)N(CC)CC [DISULFIRAM],MIC,[3],8 µg/mL
CCN(CC)C(=S)[S-].[Na+] [DITIOCARB SODIUM],MIC,[4],1 µg/mL
same,Activity,[5],Active
same,log10CFU/ml,[6],0.14
same,MBC,[3],8 µg/mL
same,MIC,[3],4 µg/mL
same,log10CFU/ml,[7],2.07
same,log10CFU/ml,[8],1.28
same,log10CFU/ml,[9],3.18
same,log10CFU/ml,[10],1.73
same,log10CFU/ml,[11],0.96
same,log10CFU/ml,[12],6.03
same,log10CFU/ml,[13],7.22
same,Activity,[14],Active
NNC(=O)c1ccncc1 [ISONIAZID],Activity,[15],Active
same,MBC,[3],0.12 µg/mL
same,MIC,[3],0.06 µg/mL
same,Activity,[16],0.25 µg/mL
NC(=O)c1cnccn1 [PYRAZINAMIDE],log10CFU/ml,[17],0.26
same,log10CFU/ml,[18],0.08
S=C(S)N1CCCC1 [PYRROLIDINE DITHIOCARBAMATE],log10CFU/ml,[6],0.06
same,MBC,[3],0.5 µg/mL
same,MIC,[3],0.125 µg/mL
same,MIC,[19],16 µg/mL
same,MIC,Escherichia coli,64 µg/mL
same,Activity,[16],0.5 µg/mL
same,log10CFU/ml,[20],2.65
same,log10CFU/ml,[21],0.89
same,log10CFU/ml,[22],0.94
same,log10CFU/ml,[23],0.13
same,log10CFU/ml,[11],0.42
same,log10CFU/ml,[24],6.19
same,log10CFU/ml,[25],7.1
CO[C@H]1/C=C/O[C@@]2(C)Oc3c(C)c(O)c4c(O)c(c(/C=N/N5CCN(C)CC5)c(O)c4c3C2=O)NC(=O)/C(C)=C\C=C\[C@H](C)[C@H](O)[C@@H](C)[C@@H](O)[C@@H](C)[C@H](OC(C)=O)[C@@H]1C [RIFAMPIN],log10CFU/ml,[26],1.32
same,log10CFU/ml,[27],4.63
same,log10CFU/ml,[28],6.36
